In patent US20120010075A1 (priority 2009, published 2012):
Read-outs that look alike come from different tables or passages of the source.

What was measured:
Phytophthora infestans = type: in vivo, Phytophthora infestans on tomato; settings: applied 24 h before inoculation, assessed 7 days after inoculation
[1] = tested on: Leptosphaeria nodorum (LEPTNO); experiment: In vitro fungitoxicity of hydrazones with and without copper towards Leptosphaeria nodorum (Example 26); type: cell-based; settings: 72 h at 25° C.; for inhibition of growth at 0.05 µg/mL: Parastagonospora nodorum, 72 h, copper-minus medium, read-out: LEPTNO % Inhn. Minus Copper Observed
[2] = hydrazone 50 ppm with 50 μM CuCl2.2H2O, tomato late blight
[3] = test compound Concn. 0.05 μg/mL
[4] = copper-plus medium (CuCl2 10 μM), test compound Concn. 0.05 μg/mL
[5] = hydrazone 50 ppm + 50 μM CuCl2.2H2O, tomato
[6] = compound 0.05 μg/mL, copper-plus medium (CuCl2.2H2O)

| SMILES | melting point | TLB % Control (Phytophthora infestans; [2]) | inhibition of growth at 0.05 µg/mL [1, 3] | LEPTNO % Inhn. Plus Copper Observed [1, 4] | TLB % Control (Phytophthora infestans; [5]) | inhibition of growth at 0.05 µg/mL ([1]; compound 0.05 μg/mL) | LEPTNO % Inhn. Plus Copper Observed [1, 6] |
| --- | --- | --- | --- | --- | --- | --- | --- |
| O=C(N/N=C/c1cc(Cl)cc(Br)c1O)c1ccc(F)cc1 [Example 415] | 200 to 211 °C | 100.0% | 2.9% | 96.1% | – | – | – |
| O=C(N/N=C/c1cc(C(F)(F)F)cc(Cl)c1O)c1cccc([N+](=O)[O-])c1 [Example 327] | 237 to 238 °C | 98.0% | 1.2% | 95.7% | – | – | – |
| Cc1ccc(C(=O)N/N=C/c2c(Cl)ccc(Cl)c2O)c(O)c1 [Example 374] | 248 to 254 °C | 98.0% | 11.1% | 98.2% | – | – | – |
| O=C(N/N=C/c1cccc(Cl)c1O)c1ccccc1C(F)(F)F [Example 432] | 118 to 121 °C | 72.0% | 0% | 95.9% | – | – | – |
| O=C(N/N=C/c1c(O)cccc1Cl)c1ccccc1O [Example 406] | 277 to 280 °C | 98.0% | 6.7% | 96.1% | – | – | – |
| O=C(N/N=C/c1cc(Cl)cc(C(F)(F)F)c1O)c1ccc(F)cc1 [Example 379] | 227 to 228 °C | 100.0% | 26.7% | 98.2% | – | – | – |
| O=C(N/N=C/c1ccc(Cl)cc1O)c1cccc(F)c1 [Example 389] | 218 to 222 °C | 95.0% | 7.7% | 97.6% | – | – | – |
| Cc1ccc(C(=O)N/N=C/c2c(Cl)ccc(Cl)c2O)cc1 [Example 366] | 267 to 269 °C | 100.0% | 14.2% | 96.6% | – | – | – |
| O=C(N/N=C/c1c(O)cccc1Cl)c1cccc([N+](=O)[O-])c1 [Example 404] | 269 to 270 °C | 97.0% | 0% | 94.9% | – | – | – |
| Cc1ccc(C(=O)N/N=C/c2c(O)cccc2Cl)cc1 [Example 399] | 250 to 252 °C | 88.0% | 5.8% | 97.1% | – | – | – |
| Cc1ccc(C(=O)N/N=C/c2c(O)cccc2Cl)c(O)c1 [Example 408] | 273 to 276 °C | 94.0% | 8.4% | 79.7% | – | – | – |
| O=C(N/N=C/c1cc(C(F)(F)F)cc(Cl)c1O)c1ccc(Cl)cc1 [Example 326] | 208 to 210 °C | 93.0% | 6.9% | 95.6% | – | – | – |
| Cc1ccc(C(=O)N/N=C/c2c(C(F)(F)F)ccc(Cl)c2O)cc1 [Example 448] | 216 to 218 °C | 100.0% | 27.1% | 97.5% | – | – | – |
| O=C(N/N=C/c1c(Cl)ccc(Cl)c1O)c1ccccc1 [Example 247] | 204 to 205 °C | – | – | – | 84.7% | 10.1% | 94.0% |
| CC/C(=N\NC(=O)c1cccc(Oc2ccccc2)c1)c1ccccc1O [Example 44] | 148 to 163 °C | – | – | – | 0.7% | 0.3% | 93.0% |
| N#Cc1ccc(C(=O)N/N=C/c2cc(Cl)cc(Cl)c2O)cc1 [Example 310] | 234 to 270 °C | 64.0% | 2.4% | 96.6% | – | – | – |
| C/C(=N\NC(=O)c1ccccc1)c1ccc(Cl)cc1O [Example 251] | 236 to 237 °C | – | – | – | 33.0% | 3.5% | 98.1% |
| COc1ccc(C(=O)N/N=C(\C)c2cc(Br)ccc2O)cc1 [Example 516] | 202 to 252 °C | 59.0% | 0% | 97.9% | – | – | – |
| COc1ccc(O)c(/C(C)=N/NC(=O)c2ccccc2Cl)c1 [Example 265] | 170 to 184 °C | – | – | – | 15.0% | 0% | 98.1% |
| COc1cccc(C(=O)N/N=C/c2cc(Br)ccc2O)c1C [Example 105] | 199 to 201 °C | – | – | – | 74.6% | 5.8% | 95.2% |
| C/C(=N\NC(=O)c1ccc(Cl)cc1)c1cc(C(F)(F)F)ccc1O [Example 533] | 263 to 265 °C | 34.0% | 6.2% | 97.0% | – | – | – |

| SMILES | melting point | TLB % Control (Phytophthora infestans; [2]) | inhibition of growth at 0.05 µg/mL [1, 3] | LEPTNO % Inhn. Plus Copper Observed [1, 4] | TLB % Control (Phytophthora infestans; [5]) | inhibition of growth at 0.05 µg/mL ([1]; compound 0.05 μg/mL) | LEPTNO % Inhn. Plus Copper Observed [1, 6] |
| --- | --- | --- | --- | --- | --- | --- | --- |
| O=C(N/N=C/c1cccc(Cl)c1O)c1ccc(F)cc1 [Example 426] | 194 to 198 °C | 98.0% | 34.8% | 97.3% | – | – | – |
| C/C(=N\NC(=O)c1ccccc1Br)c1cccc([N+](=O)[O-])c1O [Example 524] | 186 to 188 °C | 39.0% | 9.3% | 95.8% | – | – | – |
| C/C(=N\NC(=O)c1ccc(Cl)cc1)c1cc(C)ccc1O [Example 317] | 203 to 210 °C | 24.0% | 16.3% | 97.9% | – | – | – |
| C/C(=N\NC(=O)c1cccc(Cl)c1)c1cc(Cl)ccc1O [Example 509] | 244 to 249 °C | 85.0% | 0% | 96.2% | – | – | – |
| COc1ccc(/C(C)=N/NC(=O)c2ccccc2C)c(O)c1OC [Example 552] | 150 to 152 °C | 71.0% | 0% | 94.2% | – | – | – |
| C/C(=N\NC(=O)c1ccccc1)c1cc(F)cc(F)c1O [Example 572] | 222 to 225 °C | 94.0% | 2.5% | 97.4% | – | – | – |
| O=C(N/N=C/c1cc(Cl)cc(Cl)c1O)c1ccc(Cl)cc1O [Example 474] | 276 to 279 °C | 100.0% | 39.2% | 97.6% | – | – | – |
| C/C(=N\NC(=O)c1ccccc1Br)c1cc(Br)cc(Br)c1O [Example 549] | 214 to 216 °C | 94.0% | 0% | 97.3% | – | – | – |
| C/C(=N\NC(=O)c1ccccc1C)c1cc(Br)ccc1O [Example 288] | 201 to 203 °C | – | – | – | 26.0% | 1.8% | 98.2% |
| C/C(=N\NC(=O)c1cccc(Cl)c1)c1cc(Br)cc(Br)c1O [Example 544] | 255 to 256 °C | 97.0% | 6.9% | 97.6% | – | – | – |
| O=C(N/N=C/c1ccc(Cl)c(Cl)c1O)c1cccc(F)c1 [Example 356] | 215 to 218 °C | 93.0% | 18.6% | 98.0% | – | – | – |
| C/C(=N\NC(=O)c1ccc(C(F)(F)F)cc1)c1cccc([N+](=O)[O-])c1O [Example 523] | 267 to 278 °C | 92.0% | 7% | 97.7% | – | – | – |
| Cc1cc(C)cc(C(=O)N/N=C/c2ccccc2O)c1 [Example 167] | 203 to 205 °C | – | – | – | 67.3% | 0% | 95.8% |
| Cc1ccc(O)c(C(=O)N/N=C/c2cc(Cl)cc(Cl)c2O)c1 [Example 258] | 277 to 280 °C | – | – | – | 87.0% | 34.1% | 97.4% |
| COc1ccc(/C(C)=N/NC(=O)c2ccc(Br)cc2)c(O)c1OC [Example 559] | 241 to 245 °C | 93.0% | 10% | 97.3% | – | – | – |
| O=C(N/N=C/c1cc(Cl)c(C(F)(F)F)cc1O)c1ccccc1 [Example 318] | 242 to 243 °C | 71.2% | 3.1% | 97.3% | – | – | – |
| C/C(=N\NC(=O)c1cccc(Cl)c1)c1cccc(Cl)c1O [Example 497] | 197 to 219 °C | 75.0% | 0% | 98.1% | – | – | – |
| C/C(=N\NC(=O)c1ccc(Cl)cc1)c1cccc([N+](=O)[O-])c1O [Example 274] | 241 to 251 °C | – | – | – | 89.0% | 0% | 96.3% |
| Cc1cccc(C(=O)N/N=C/c2cc(C(F)(F)F)cc(C(F)(F)F)c2O)c1 [Example 332] | 210 to 213 °C | 89.0% | 2% | 93.9% | – | – | – |
| C/C(=N\NC(=O)c1ccccc1[N+](=O)[O-])c1cc(Cl)cc(Cl)c1O [Example 142] | 250 to 253 °C | – | – | – | 79.0% | 1.1% | 98.2% |
